Measurements from the kinase profiling compilation of Christmann-Franck et al. (2016).

Tests used:
Test in all cases: radiometric filter-binding kinase assay
MAPK12 (human) = MAPK12 (human) (UniProt P53778)
BRSK2 (human) = BRSK2 (human) (UniProt Q8IWQ3)
MAPK13 (human) = MAPK13 (human) (UniProt O15264)
MAPK3 (human) = MAPK3 (human) (UniProt P27361)
PAK4 (human) = PAK4 (human) (UniProt O96013)
DYRK2 (human) = DYRK2 (human) (UniProt Q92630)
RPS6KA1 KD1 KD2 (human) = RPS6KA1 KD1 KD2 (human) (UniProt Q15418)
PRKACA (human) = PRKACA (human) (UniProt P17612)
CHEK2 (human) = CHEK2 (human) (UniProt O96017)
Sequence of CHEK2 (human) (O96017 whole entry, looked up): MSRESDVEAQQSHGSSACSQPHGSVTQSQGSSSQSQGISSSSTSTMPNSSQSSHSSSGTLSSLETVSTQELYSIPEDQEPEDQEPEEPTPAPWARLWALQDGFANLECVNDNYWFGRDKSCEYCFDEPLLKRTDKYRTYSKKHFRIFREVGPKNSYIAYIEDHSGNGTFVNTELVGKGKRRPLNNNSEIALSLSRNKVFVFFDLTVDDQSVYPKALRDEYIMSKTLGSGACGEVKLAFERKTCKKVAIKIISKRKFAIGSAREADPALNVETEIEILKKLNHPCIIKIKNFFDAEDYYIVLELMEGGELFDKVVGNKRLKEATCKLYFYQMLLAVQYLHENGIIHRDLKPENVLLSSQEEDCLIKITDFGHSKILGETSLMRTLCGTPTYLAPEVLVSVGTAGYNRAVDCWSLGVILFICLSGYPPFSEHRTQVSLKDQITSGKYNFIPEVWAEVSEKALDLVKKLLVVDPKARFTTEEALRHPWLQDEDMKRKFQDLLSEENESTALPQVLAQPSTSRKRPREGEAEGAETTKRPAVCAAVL

PRKAA1 or PRKAA2 (rat) = conditions: accession and sequence are those of the human protein
CaMK1 (human) = CaMK1 (human) (UniProt Q14012)
EPHB3 (human) = EPHB3 (human) (UniProt P54753)
Sequence of EPHB3 (human) (P54753 whole entry, looked up): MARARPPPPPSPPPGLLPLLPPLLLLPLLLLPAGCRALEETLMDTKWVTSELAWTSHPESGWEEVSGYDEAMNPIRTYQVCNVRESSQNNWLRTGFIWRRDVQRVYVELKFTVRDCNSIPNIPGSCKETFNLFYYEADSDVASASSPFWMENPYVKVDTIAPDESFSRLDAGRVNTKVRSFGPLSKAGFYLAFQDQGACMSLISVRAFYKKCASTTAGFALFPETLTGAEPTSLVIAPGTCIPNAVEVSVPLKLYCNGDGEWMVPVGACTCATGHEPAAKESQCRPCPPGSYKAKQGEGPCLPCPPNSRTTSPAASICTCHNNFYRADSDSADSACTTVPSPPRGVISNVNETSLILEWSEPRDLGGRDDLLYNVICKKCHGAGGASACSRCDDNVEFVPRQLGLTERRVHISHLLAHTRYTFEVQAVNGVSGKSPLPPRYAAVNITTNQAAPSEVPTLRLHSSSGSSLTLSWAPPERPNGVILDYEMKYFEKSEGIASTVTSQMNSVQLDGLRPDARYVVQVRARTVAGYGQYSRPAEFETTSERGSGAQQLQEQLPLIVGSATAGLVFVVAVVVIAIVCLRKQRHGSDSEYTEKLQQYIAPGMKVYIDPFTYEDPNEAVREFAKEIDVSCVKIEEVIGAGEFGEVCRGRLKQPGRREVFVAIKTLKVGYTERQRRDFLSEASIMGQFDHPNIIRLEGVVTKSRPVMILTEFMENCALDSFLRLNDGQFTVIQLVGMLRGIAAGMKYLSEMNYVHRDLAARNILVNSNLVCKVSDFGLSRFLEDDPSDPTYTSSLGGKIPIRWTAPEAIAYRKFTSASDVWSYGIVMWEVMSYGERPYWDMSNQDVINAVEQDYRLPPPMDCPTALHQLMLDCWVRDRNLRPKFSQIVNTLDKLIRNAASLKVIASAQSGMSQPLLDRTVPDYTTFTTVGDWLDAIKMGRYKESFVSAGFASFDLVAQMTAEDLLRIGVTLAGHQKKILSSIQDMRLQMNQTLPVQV

SYK (human) = SYK (human) (UniProt P43405)
MKNK1 (human) = MKNK1 (human) (UniProt Q9BUB5)
Sequence of MKNK1 (human) (Q9BUB5 whole entry, looked up): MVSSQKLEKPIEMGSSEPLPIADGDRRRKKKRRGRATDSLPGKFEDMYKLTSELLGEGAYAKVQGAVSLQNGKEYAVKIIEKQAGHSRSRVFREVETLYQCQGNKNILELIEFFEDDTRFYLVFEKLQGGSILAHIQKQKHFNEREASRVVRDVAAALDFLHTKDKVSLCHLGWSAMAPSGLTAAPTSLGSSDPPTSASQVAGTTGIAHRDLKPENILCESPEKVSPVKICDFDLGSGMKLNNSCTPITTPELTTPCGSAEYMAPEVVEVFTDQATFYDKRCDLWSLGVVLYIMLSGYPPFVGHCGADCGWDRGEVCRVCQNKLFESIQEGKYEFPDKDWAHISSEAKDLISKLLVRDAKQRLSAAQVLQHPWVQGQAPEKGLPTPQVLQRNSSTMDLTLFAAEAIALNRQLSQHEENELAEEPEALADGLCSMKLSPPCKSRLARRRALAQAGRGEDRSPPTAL

[1] = tested on: AKT1 (human), P31749 [S473D]
Sequence of AKT1 (human), P31749 [S473D] (P31749 whole entry S473D, looked up): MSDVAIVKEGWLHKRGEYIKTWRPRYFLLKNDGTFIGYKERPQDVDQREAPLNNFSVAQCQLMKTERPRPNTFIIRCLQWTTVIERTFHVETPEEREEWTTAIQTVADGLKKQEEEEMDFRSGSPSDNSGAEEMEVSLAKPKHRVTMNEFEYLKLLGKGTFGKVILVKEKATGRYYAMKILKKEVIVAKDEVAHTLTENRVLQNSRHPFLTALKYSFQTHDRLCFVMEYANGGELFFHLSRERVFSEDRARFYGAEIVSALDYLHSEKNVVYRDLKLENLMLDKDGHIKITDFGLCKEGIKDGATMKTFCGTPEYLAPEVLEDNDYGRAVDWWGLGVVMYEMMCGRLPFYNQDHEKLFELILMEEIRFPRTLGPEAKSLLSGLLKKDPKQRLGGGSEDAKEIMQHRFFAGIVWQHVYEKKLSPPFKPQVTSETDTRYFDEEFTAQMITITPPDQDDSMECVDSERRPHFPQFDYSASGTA

PLK1 (human) = PLK1 (human) (UniProt P53350)
Sequence of PLK1 (human) (P53350 whole entry, looked up): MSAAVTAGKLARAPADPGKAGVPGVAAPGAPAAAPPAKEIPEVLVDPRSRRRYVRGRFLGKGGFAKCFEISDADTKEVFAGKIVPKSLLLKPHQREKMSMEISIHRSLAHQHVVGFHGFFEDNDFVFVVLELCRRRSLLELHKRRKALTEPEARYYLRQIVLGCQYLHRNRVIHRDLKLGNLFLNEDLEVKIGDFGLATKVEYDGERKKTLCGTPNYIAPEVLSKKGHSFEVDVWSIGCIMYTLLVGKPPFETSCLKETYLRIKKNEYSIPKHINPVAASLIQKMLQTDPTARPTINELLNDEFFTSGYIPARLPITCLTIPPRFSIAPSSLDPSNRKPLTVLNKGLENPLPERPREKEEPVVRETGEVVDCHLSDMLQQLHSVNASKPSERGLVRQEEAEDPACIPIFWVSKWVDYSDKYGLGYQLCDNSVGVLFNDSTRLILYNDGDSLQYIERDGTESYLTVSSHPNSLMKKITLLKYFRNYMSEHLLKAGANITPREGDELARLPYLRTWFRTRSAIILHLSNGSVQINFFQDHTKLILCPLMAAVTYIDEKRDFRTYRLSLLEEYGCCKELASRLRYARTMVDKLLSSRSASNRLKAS

DYRK1A (human) = DYRK1A (human) (UniProt Q13627)
MAPK8 (human) = MAPK8 (human) (UniProt P45983)
NEK2 (human) = NEK2 (human) (UniProt P51955)
MAPK1 (human) = MAPK1 (human) (UniProt P28482)
MST4 (human) = MST4 (human) (UniProt Q9P289)
PRKCA (human) = PRKCA (human) (UniProt P17252)
PAK7 (human) = PAK7 (human) (UniProt Q9P286)
Sequence of PAK7 (human) (Q9P286 whole entry, looked up): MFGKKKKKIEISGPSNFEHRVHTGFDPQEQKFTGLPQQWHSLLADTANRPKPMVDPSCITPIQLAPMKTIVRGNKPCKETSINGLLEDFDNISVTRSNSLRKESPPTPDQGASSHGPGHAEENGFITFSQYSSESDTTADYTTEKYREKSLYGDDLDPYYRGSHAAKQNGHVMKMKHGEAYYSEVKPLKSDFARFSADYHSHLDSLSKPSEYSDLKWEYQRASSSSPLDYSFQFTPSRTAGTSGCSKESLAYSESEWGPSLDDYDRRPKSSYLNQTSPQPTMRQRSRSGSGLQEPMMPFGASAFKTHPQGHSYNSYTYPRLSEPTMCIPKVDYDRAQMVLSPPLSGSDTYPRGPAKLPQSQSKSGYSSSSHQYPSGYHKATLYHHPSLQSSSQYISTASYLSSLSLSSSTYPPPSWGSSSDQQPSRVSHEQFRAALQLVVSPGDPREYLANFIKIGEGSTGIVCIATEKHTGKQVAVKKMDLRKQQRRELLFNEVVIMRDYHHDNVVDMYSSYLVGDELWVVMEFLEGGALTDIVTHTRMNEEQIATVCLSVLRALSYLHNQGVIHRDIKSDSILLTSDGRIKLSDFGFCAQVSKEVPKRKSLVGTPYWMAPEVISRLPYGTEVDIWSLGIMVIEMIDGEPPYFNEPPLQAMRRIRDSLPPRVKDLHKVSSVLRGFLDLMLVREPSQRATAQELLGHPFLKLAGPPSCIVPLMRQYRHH

HIPK2 (human) = HIPK2 (human) (UniProt Q9H2X6)
Sequence of HIPK2 (human) (Q9H2X6 whole entry, looked up): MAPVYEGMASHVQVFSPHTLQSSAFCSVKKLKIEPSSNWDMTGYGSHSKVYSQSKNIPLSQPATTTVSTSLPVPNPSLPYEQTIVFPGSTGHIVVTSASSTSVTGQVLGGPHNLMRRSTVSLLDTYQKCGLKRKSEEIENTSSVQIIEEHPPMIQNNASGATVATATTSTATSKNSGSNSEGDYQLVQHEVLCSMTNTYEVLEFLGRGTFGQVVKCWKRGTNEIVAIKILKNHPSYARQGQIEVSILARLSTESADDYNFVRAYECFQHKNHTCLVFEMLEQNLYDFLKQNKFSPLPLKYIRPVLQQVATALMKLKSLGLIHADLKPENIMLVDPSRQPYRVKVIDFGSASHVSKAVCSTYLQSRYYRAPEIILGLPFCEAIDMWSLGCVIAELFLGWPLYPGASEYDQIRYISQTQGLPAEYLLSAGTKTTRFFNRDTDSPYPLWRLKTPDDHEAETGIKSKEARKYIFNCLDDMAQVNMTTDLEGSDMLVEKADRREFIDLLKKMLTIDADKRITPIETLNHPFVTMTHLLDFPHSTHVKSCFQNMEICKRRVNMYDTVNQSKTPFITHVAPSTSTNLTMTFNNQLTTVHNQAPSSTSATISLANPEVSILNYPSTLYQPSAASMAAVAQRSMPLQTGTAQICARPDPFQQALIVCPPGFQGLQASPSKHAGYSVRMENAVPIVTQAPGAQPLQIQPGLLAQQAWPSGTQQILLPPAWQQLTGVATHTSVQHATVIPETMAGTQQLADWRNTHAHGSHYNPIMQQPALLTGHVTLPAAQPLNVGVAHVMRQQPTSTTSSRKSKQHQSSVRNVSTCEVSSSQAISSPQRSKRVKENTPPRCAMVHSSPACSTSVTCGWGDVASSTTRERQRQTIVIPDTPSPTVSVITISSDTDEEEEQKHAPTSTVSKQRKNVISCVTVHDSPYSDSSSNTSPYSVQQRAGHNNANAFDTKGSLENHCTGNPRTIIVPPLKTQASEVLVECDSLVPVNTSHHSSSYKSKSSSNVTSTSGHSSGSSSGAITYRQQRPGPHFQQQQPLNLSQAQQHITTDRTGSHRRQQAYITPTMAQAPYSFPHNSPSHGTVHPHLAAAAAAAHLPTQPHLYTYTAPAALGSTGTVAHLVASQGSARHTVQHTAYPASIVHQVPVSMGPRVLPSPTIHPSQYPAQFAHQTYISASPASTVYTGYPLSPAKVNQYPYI

IKBKE (human) = IKBKE (human) (UniProt Q14164)
[2] = tested on: SGK1 (human), O00141 [S422D]

In the case of `O=C1NC(=S)N[C@@H]1Cc1c[nH]c2ccccc12`, the residual activity (MAPK12 (human); compound 1.0 µM) is reported as 103%, the residual activity (MAPK12 (human); compound 10.0 µM) is reported as 96% and the residual activity (BRSK2 (human); compound 1.0 µM) is reported as 79%. It also gave a residual activity (BRSK2 (human); compound 10.0 µM) of 94%, a residual activity (MAPK13 (human); compound 1.0 µM) of 94% and a residual activity (MAPK13 (human); compound 10.0 µM) of 98%. The residual activity (MAPK3 (human); compound 1.0 µM) was 107%, the residual activity (MAPK3 (human); compound 10.0 µM) was 82% and the residual activity (PAK4 (human); compound 1.0 µM) was 103%. The residual activity (PAK4 (human); compound 10.0 µM) was 106%, the residual activity (DYRK2 (human); compound 1.0 µM) was 82% and the residual activity (DYRK2 (human); compound 10.0 µM) was 98%. For the same compound, the residual activity (RPS6KA1 KD1 KD2 (human); compound 1.0 µM) was 80%, the residual activity (RPS6KA1 KD1 KD2 (human); compound 10.0 µM) was 91% and the residual activity (PRKACA (human); compound 1.0 µM) was 80%. For the same compound, the residual activity (PRKACA (human); compound 10.0 µM) was 95%, the residual activity (CHEK2 (human); compound 1.0 µM) was 82% and the residual activity (CHEK2 (human); compound 10.0 µM) was 94%. For the same compound, the residual activity (PRKAA1 or PRKAA2 (rat); compound 1.0 µM) was 102%, the residual activity (PRKAA1 or PRKAA2 (rat); compound 10.0 µM) was 95% and the residual activity (CaMK1 (human); compound 1.0 µM) was 89%. For the same compound, the residual activity (CaMK1 (human); compound 10.0 µM) was 104%, the residual activity (EPHB3 (human); compound 1.0 µM) was 81% and the residual activity (SYK (human); compound 1.0 µM) was 92%. The residual activity (SYK (human); compound 10.0 µM) was 116%, the residual activity (MKNK1 (human); compound 1.0 µM) was 85% and the residual activity ([1]; compound 1.0 µM) was 87%. The residual activity ([1]; compound 10.0 µM) was 90%, the residual activity (PLK1 (human); compound 1.0 µM) was 97% and the residual activity (PLK1 (human); compound 10.0 µM) was 93%. It also gave a residual activity (DYRK1A (human); compound 1.0 µM) of 85%, a residual activity (DYRK1A (human); compound 10.0 µM) of 92% and a residual activity (MAPK8 (human); compound 1.0 µM) of 83%. It also gave a residual activity (MAPK8 (human); compound 10.0 µM) of 107%, a residual activity (NEK2 (human); compound 1.0 µM) of 87% and a residual activity (NEK2 (human); compound 10.0 µM) of 92%. It also gave a residual activity (MAPK1 (human); compound 1.0 µM) of 80%, a residual activity (MAPK1 (human); compound 10.0 µM) of 88% and a residual activity (MST4 (human); compound 1.0 µM) of 126%. It also gave a residual activity (MST4 (human); compound 10.0 µM) of 108%, a residual activity (PRKCA (human); compound 1.0 µM) of 97% and a residual activity (PRKCA (human); compound 10.0 µM) of 104%. The residual activity (PAK7 (human); compound 1.0 µM) was 97%, the residual activity (PAK7 (human); compound 10.0 µM) was 108% and the residual activity (HIPK2 (human); compound 10.0 µM) was 92%. For the same compound, the residual activity (IKBKE (human); compound 1.0 µM) was 84%, the residual activity (IKBKE (human); compound 10.0 µM) was 93% and the residual activity ([2]; compound 1.0 µM) was 87%. For the same compound, the residual activity ([2]; compound 10.0 µM) was 96%.

`C[C@H]1CCCC(=O)CCC/C=C/c2cc(O)cc(O)c2C(=O)O1` showed a residual activity (MAPK12 (human); compound 1.0 µM) of 97%, a residual activity (MAPK12 (human); compound 10.0 µM) of 93% and a residual activity (BRSK2 (human); compound 1.0 µM) of 54%. For the same compound, the residual activity (BRSK2 (human); compound 10.0 µM) was 17%, the residual activity (MAPK13 (human); compound 1.0 µM) was 84% and the residual activity (MAPK13 (human); compound 10.0 µM) was 87%. For the same compound, the residual activity (MAPK3 (human); compound 1.0 µM) was 113%, the residual activity (MAPK3 (human); compound 10.0 µM) was 107% and the residual activity (PAK4 (human); compound 1.0 µM) was 95%. For the same compound, the residual activity (PAK4 (human); compound 10.0 µM) was 90%, the residual activity (DYRK2 (human); compound 1.0 µM) was 90% and the residual activity (DYRK2 (human); compound 10.0 µM) was 62%. The residual activity (RPS6KA1 KD1 KD2 (human); compound 1.0 µM) was 89%, the residual activity (RPS6KA1 KD1 KD2 (human); compound 10.0 µM) was 41% and the residual activity (PRKACA (human); compound 1.0 µM) was 97%. For the same compound, the residual activity (PRKACA (human); compound 10.0 µM) was 91%, the residual activity (CHEK2 (human); compound 1.0 µM) was 93% and the residual activity (CHEK2 (human); compound 10.0 µM) was 73%. For the same compound, the residual activity (PRKAA1 or PRKAA2 (rat); compound 1.0 µM) was 94%, the residual activity (PRKAA1 or PRKAA2 (rat); compound 10.0 µM) was 60% and the residual activity (CaMK1 (human); compound 1.0 µM) was 101%. It also gave a residual activity (CaMK1 (human); compound 10.0 µM) of 75%, a residual activity (EPHB3 (human); compound 1.0 µM) of 85% and a residual activity (EPHB3 (human); compound 10.0 µM) of 85%. For the same compound, the residual activity (SYK (human); compound 1.0 µM) was 93%, the residual activity (SYK (human); compound 10.0 µM) was 84% and the residual activity (MKNK1 (human); compound 1.0 µM) was 89%. It also gave a residual activity (MKNK1 (human); compound 10.0 µM) of 46%, a residual activity ([1]; compound 10.0 µM) of 95% and a residual activity (PLK1 (human); compound 1.0 µM) of 76%. The residual activity (PLK1 (human); compound 10.0 µM) was 63%, the residual activity (DYRK1A (human); compound 10.0 µM) was 32% and the residual activity (MAPK8 (human); compound 1.0 µM) was 88%. The residual activity (MAPK8 (human); compound 10.0 µM) was 80%, the residual activity (NEK2 (human); compound 1.0 µM) was 93% and the residual activity (NEK2 (human); compound 10.0 µM) was 96%. For the same compound, the residual activity (MAPK1 (human); compound 1.0 µM) was 98%, the residual activity (MAPK1 (human); compound 10.0 µM) was 96% and the residual activity (MST4 (human); compound 10.0 µM) was 66%. For the same compound, the residual activity (PRKCA (human); compound 1.0 µM) was 54%, the residual activity (PRKCA (human); compound 10.0 µM) was 69% and the residual activity (PAK7 (human); compound 1.0 µM) was 93%. For the same compound, the residual activity (PAK7 (human); compound 10.0 µM) was 80%, the residual activity (HIPK2 (human); compound 1.0 µM) was 100% and the residual activity (HIPK2 (human); compound 10.0 µM) was 63%. The residual activity (IKBKE (human); compound 1.0 µM) was 95%, the residual activity (IKBKE (human); compound 10.0 µM) was 82% and the residual activity ([2]; compound 1.0 µM) was 93%. It also gave a residual activity ([2]; compound 10.0 µM) of 93%.
